Earlier results as cited in US20040058899A1, “Use of epothilones and analogs in conjunction with ophthalmic surgery” (priority 2002, published 2004).

Tested on: tumor-implanted mice
Conditions: for toxic effects / animal deaths: comparably effective doses

Row | SMILES | toxic effects / animal deaths | tumor regression
1 | COc1cccc2c1C(=O)c1c(O)c3c(c(O)c1C2=O)C[C@@](O)(C(=O)CO)C[C@@H]3O[C@H]1C[C@H](N)[C@H](O)[C@H](C)O1 [adriamycin] | caused some animal deaths | 
2 | C/C1=C/C[C@@H](/C(C)=C/c2csc(C)n2)OC(=O)C[C@H](O)C(C)(C)C(=O)[C@H](C)[C@@H](O)[C@@H](C)CCC1 [deoxyepothilone B] | without any noticeable toxic effects | complete tumor regression
3 | CC(=O)O[C@H]1C(=O)[C@@]2(C)[C@H]([C@H](OC(=O)c3ccccc3)[C@]3(O)C[C@H](OC(=O)[C@H](O)[C@@H](NC(=O)c4ccccc4)c4ccccc4)C(C)=C1C3(C)C)[C@]1(OC(C)=O)CO[C@@H]1C[C@@H]2O [paclitaxel] | caused some animal deaths | 
